According to patent publication US20240050457A1 (UROVANT SCIENCES GMBH, priority 2020, published 2024):
Where two headings read alike, the source gives them in different places.

Legend:
β3-AR = β3-AR (Homo sapiens, UniProt P13945); settings: cell based in vitro assays; cited from earlier work
cytochrome P450 = settings: cited from earlier work
[1] = for Tmax, median: healthy subjects, 18
Procedure: (§1) An open-label, single-dose and multiple-dose, two-period, two-treatment single-sequence drug-drug interaction study was conducted. All subjects received Treatment A during Period 1 and Treatment B during Period 2.
(§2) Samples were stored in polypropylene tubes and kept frozen at approximately −20° C. prior to analysis. A 150-μL matrix aliquot was fortified with 20 μL of 40.0 ng/mL internal standard working solution. Analytes were isolated using an Isolute SLE+ (200-mg) supported liquid extraction 96-well plate and eluted with 800 μL of methylene chloride. The eluate was evaporated under a nitrogen stream at approximately 45° C., and the remaining residue was reconstituted with 250 μL of 90:10:40:0.7 water/methanol/acetonitrile/1.0 M ammonium acetate, v/v/v/v. The final extract was analyzed via HPLC with column-switching and MS/MS detection using positive ion electrospray. Extracts were analyzed by HPLC MS/MS using positive ion electrospray.

clinical = settings: human, plasma, po, 0.25 mg
Procedure: as §1, §2

β3-AR, sequence (P13945 whole entry): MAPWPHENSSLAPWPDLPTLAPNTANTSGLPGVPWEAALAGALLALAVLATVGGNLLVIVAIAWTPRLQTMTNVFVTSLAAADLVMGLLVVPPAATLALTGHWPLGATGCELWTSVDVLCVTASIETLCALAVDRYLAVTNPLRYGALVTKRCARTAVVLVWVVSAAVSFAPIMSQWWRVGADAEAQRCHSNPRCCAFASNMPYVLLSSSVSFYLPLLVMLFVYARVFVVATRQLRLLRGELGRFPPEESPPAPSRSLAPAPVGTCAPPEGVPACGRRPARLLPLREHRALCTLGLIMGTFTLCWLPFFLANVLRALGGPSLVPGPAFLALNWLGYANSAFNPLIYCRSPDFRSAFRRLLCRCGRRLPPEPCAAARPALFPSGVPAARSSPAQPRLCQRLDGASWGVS

| Structure (SMILES) | selectivity for activation of β3-AR over β2-AR and β1-AR (β3-AR) | inhibitor of major enzymes produced from the cytochrome P450 genes (cytochrome P450) | Tmax, median ([1]; Digoxin 0.25 mg × 1 dose with vibegron (150 mg × 1 dose + 100 mg × 5 doses)) | Tmax, median ([1]; Digoxin alone, 0.25 mg single dose oral tablet) | change of half-life (T1/2) ([1]; group receiving digoxin+vibegron compared to group receiving digoxin alone) | AUC(0-inf) (clinical) | Cmax (clinical) | half-life (clinical) |
| --- | --- | --- | --- | --- | --- | --- | --- | --- |
| O=C(Nc1ccc(C[C@@H]2CC[C@H]([C@H](O)c3ccccc3)N2)cc1)[C@@H]1CCc2nccc(=O)n21 [Vibegron, (6S)—N-[4-[[(2S,5R)-5-[(R)-hydroxy(phenyl)methyl]pyrrolidin-2-yl]methyl]phenyl]-4-oxo-7,8-dihydro-6H-pyrrolo[1,2-a]pyrimidine-6-carboxamide] | > 9,000 fold | not an inhibitor | – | – | – | – | – | – |
| C[C@H]1O[C@@H](O[C@H]2[C@@H](O)C[C@H](O[C@H]3[C@@H](O)C[C@H](O[C@H]4CC[C@@]5(C)[C@H](CC[C@@H]6[C@@H]5C[C@@H](O)[C@]5(C)[C@@H](C7=CC(=O)OC7)CC[C@]65O)C4)O[C@@H]3C)O[C@@H]2C)C[C@H](O)[C@@H]1O [Digoxin] | – | – | 1.00 | 1.00 | increase | 17.2 ng·h/mL | 1.24 ng/mL | 36.8 h |
